Nc1nc(Cl)c2[nH]cnc2n1
Conditions	solubility (mole fraction)
in 1,4-dioxane, 288.15 K	7.48e-05
in 1,4-dioxane, 293.15 K	9.16e-05
in 1,4-dioxane, 298.15 K	0.000112
in 1,4-dioxane, 303.15 K	0.000135
in 1,4-dioxane, 308.15 K	0.000162
in 1,4-dioxane, 313.15 K	0.000195
in 1,4-dioxane, 318.15 K	0.000236
in 1,4-dioxane, 323.15 K	0.000277
in 1,4-dioxane, 328.15 K	0.000325
in 1,4-dioxane, 333.15 K	0.000396
in 2-butanone, 278.15 K	0.000178
in 2-butanone, 283.15 K	0.000214
in 2-butanone, 288.15 K	0.000256
in 2-butanone, 293.15 K	0.000303
in 2-butanone, 298.15 K	0.000352
in 2-butanone, 303.15 K	0.000408
in 2-butanone, 308.15 K	0.000476
in 2-butanone, 313.15 K	0.000547
in 2-butanone, 318.15 K	0.000626
in 2-butanone, 323.15 K	0.000723
in 2-butanone, 328.15 K	0.00084
in 2-butanone, 333.15 K	0.001
in DMF, 278.15 K	0.00226
in DMF, 283.15 K	0.00266
in DMF, 288.15 K	0.00313
in DMF, 293.15 K	0.00366
in DMF, 298.15 K	0.00427
in DMF, 303.15 K	0.00497
in DMF, 308.15 K	0.00577
in DMF, 313.15 K	0.00668
in DMF, 318.15 K	0.00771
in DMF, 323.15 K	0.00888
in DMF, 328.15 K	0.01
in DMF, 333.15 K	0.0121
in DMSO, 298.15 K	0.0108
in DMSO, 303.15 K	0.0127
in DMSO, 308.15 K	0.015
in DMSO, 313.15 K	0.0172
in DMSO, 318.15 K	0.0204
in DMSO, 323.15 K	0.024
in DMSO, 328.15 K	0.0284
in DMSO, 333.15 K	0.0331
in ethanol, 278.15 K	4.39e-05
in ethanol, 283.15 K	5.42e-05
in ethanol, 288.15 K	6.87e-05
in ethanol, 293.15 K	8.56e-05
in ethanol, 298.15 K	0.000105
in ethanol, 303.15 K	0.000125
in ethanol, 308.15 K	0.000153
in ethanol, 313.15 K	0.000184
in ethanol, 318.15 K	0.000218
in ethanol, 323.15 K	0.000258
in ethanol, 328.15 K	0.000303
in ethanol, 333.15 K	0.000357
in ethylene glycol, 278.15 K	0.000549
in ethylene glycol, 283.15 K	0.000634
in ethylene glycol, 288.15 K	0.000719
in ethylene glycol, 293.15 K	0.000823
in ethylene glycol, 298.15 K	0.000923
in ethylene glycol, 303.15 K	0.00104
in ethylene glycol, 308.15 K	0.00117
in ethylene glycol, 313.15 K	0.0013
in ethylene glycol, 318.15 K	0.00145
in ethylene glycol, 323.15 K	0.0016
in ethylene glycol, 328.15 K	0.00177
in ethylene glycol, 333.15 K	0.00198
in isobutanol, 278.15 K	8.8e-05
in isobutanol, 283.15 K	0.000106
in isobutanol, 288.15 K	0.000131
in isobutanol, 293.15 K	0.000155
in isobutanol, 298.15 K	0.00018
in isobutanol, 303.15 K	0.000211
in isobutanol, 308.15 K	0.000244
in isobutanol, 313.15 K	0.00028
in isobutanol, 318.15 K	0.000325
in isobutanol, 323.15 K	0.000373
in isobutanol, 328.15 K	0.000433
in isobutanol, 333.15 K	0.000499
in isopropanol, 278.15 K	5.99e-05
in isopropanol, 283.15 K	7.43e-05
in isopropanol, 288.15 K	9.38e-05
in isopropanol, 293.15 K	0.000114
in isopropanol, 298.15 K	0.000137
in isopropanol, 303.15 K	0.000165
in isopropanol, 308.15 K	0.000195
in isopropanol, 313.15 K	0.00023
in isopropanol, 318.15 K	0.000266
in isopropanol, 323.15 K	0.000314
in isopropanol, 328.15 K	0.000363
in isopropanol, 333.15 K	0.000431
in methanol, 278.15 K	3.09e-05
in methanol, 283.15 K	3.96e-05
in methanol, 288.15 K	4.94e-05
in methanol, 293.15 K	6.14e-05
in methanol, 298.15 K	7.53e-05
in methanol, 303.15 K	9.43e-05
in methanol, 308.15 K	0.000112
in methanol, 313.15 K	0.000137
in methanol, 318.15 K	0.000168
in methanol, 323.15 K	0.000198
in methanol, 328.15 K	0.000233
in methanol, 333.15 K	0.000279
in n-butanol, 278.15 K	0.000135
in n-butanol, 283.15 K	0.000159
in n-butanol, 288.15 K	0.000185
in n-butanol, 293.15 K	0.00021
in n-butanol, 298.15 K	0.000242
in n-butanol, 303.15 K	0.000276
in n-butanol, 308.15 K	0.000316
in n-butanol, 313.15 K	0.000358
in n-butanol, 318.15 K	0.000409
in n-butanol, 323.15 K	0.000461
in n-butanol, 328.15 K	0.000515
in n-butanol, 333.15 K	0.000586
in n-propanol, 278.15 K	0.000103
in n-propanol, 283.15 K	0.000122
in n-propanol, 288.15 K	0.000149
in n-propanol, 293.15 K	0.000174
in n-propanol, 298.15 K	0.000202
in n-propanol, 303.15 K	0.000234
in n-propanol, 308.15 K	0.000274
in n-propanol, 313.15 K	0.000314
in n-propanol, 318.15 K	0.000362
in n-propanol, 323.15 K	0.00042
in n-propanol, 328.15 K	0.000472
in n-propanol, 333.15 K	0.000539
in water, 278.15 K	3.28e-06
in water, 283.15 K	4.66e-06
in water, 288.15 K	6.53e-06
in water, 293.15 K	9.04e-06
in water, 298.15 K	1.24e-05
in water, 303.15 K	1.68e-05
in water, 308.15 K	2.26e-05
in water, 313.15 K	3e-05
in water, 318.15 K	3.96e-05
in water, 323.15 K	5.17e-05
in water, 328.15 K	6.7e-05
in water, 333.15 K	8.62e-05
